Here are results for six compounds from PubChem BioAssay (NCI).

Some test systems named below: 786-0 renal; COLO 205 colon; HCT-116 colon; LOX IMVI melanoma; MALME-3M melanoma; NCI-H522 lung; OVCAR-3 ovarian; OVCAR-4 ovarian; SF-295 CNS; U251 CNS.
Holding throughout (assay): DTP human tumour cell line panel, 48 h

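The compound was tested at five concentrations on cells cultured in 96-well plates, with a 48-hour exposure period. Abbreviation: GI50, concentration required for 50% inhibition of growth. TGI denotes the concentration required for complete inhibition of growth.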

As usually defined, the GI50 is the concentration at which growth is held to half of that of the control. A word on the TGI: it is the concentration at which net growth stops. Low values mean greater sensitivity of the cells, high ones lower sensitivity of the cells. As to `COc1cc(OC)cc(Oc2cnc3cc(N)cc(N)c3n2)c1`, the GI50 in the test on 786-0 renal is 15200 nM; in the test on COLO 205 colon it was 14 µM; in the test on HCT-116 colon, 6470 nM; in the test on LOX IMVI melanoma, 11500 nM; in the test with MALME-3M melanoma, 10700 nM; in the test on NCI-H522 lung, 18700 nM. The GI50 is 1830 nM in the test with OVCAR-3 ovarian, 9.07 µM in the test with OVCAR-4 ovarian, 11600 nM in the test on SF-295 CNS and 15500 nM in the test with U251 CNS. Also, the TGI in the test with 786-0 renal turned out to be 29 µM; in the test on COLO 205 colon, 37.5 µM; with HCT-116 colon, 20.2 µM; with LOX IMVI melanoma it was 24 µM; in the test on MALME-3M melanoma it was 22.5 µM; in the test with NCI-H522 lung, 37.3 µM. The TGI in the test on OVCAR-3 ovarian came to 10.5 µM; with OVCAR-4 ovarian, 21.8 µM; in the test on SF-295 CNS, 32.7 µM; with U251 CNS it was 28.8 µM.
As to `CN1CCN(C(=O)[C@@]2(C)CC[C@]3(C)CC[C@]4(C)C(=CC[C@@H]5[C@@]6(C)CCC(=O)NC(C)(C)[C@@H]6CC[C@]54C)[C@@H]3C2)CC1`, the GI50 was 1580 nM with 786-0 renal; 1.54 µM in the test with COLO 205 colon; 1130 nM in the test on HCT-116 colon; 1460 nM in the test with LOX IMVI melanoma; 1450 nM with MALME-3M melanoma; 1780 nM in the test on NCI-H522 lung. In addition, the GI50 in the test with OVCAR-3 ovarian is 2010 nM; in the test with OVCAR-4 ovarian it was 2.94 µM; in the test on SF-295 CNS it was 1530 nM; in the test with U251 CNS, 1380 nM. Further, the TGI in the test on 786-0 renal was determined as 2.98 µM; in the test with COLO 205 colon, 3.18 µM; with HCT-116 colon, 2.45 µM; in the test with LOX IMVI melanoma it was 2.84 µM; in the test with MALME-3M melanoma, 2.82 µM; with NCI-H522 lung it was 3.75 µM. In addition, the TGI was determined as 4.7 µM with OVCAR-3 ovarian, 13 µM with OVCAR-4 ovarian, 3.07 µM in the test on SF-295 CNS and 2.82 µM in the test on U251 CNS.
Consider `COc1cc2c3c(n(CCCN4CCNCC4)c(=O)c2cc1OC)-c1cc2c(cc1C3=O)OCO2`, for which the GI50 in the test with 786-0 renal is 51.3 nM; in the test on COLO 205 colon it was 3.06 µM; with HCT-116 colon, 281 nM; in the test with LOX IMVI melanoma, 73.2 nM; in the test with MALME-3M melanoma, 2550 nM; with NCI-H522 lung it was 2180 nM. Besides, the GI50 was 1220 nM in the test with OVCAR-3 ovarian, 4.05 µM with OVCAR-4 ovarian, 85.1 nM in the test with SF-295 CNS and 89.2 nM in the test on U251 CNS. Besides, the TGI in the test on 786-0 renal was 0.429 µM; in the test on COLO 205 colon, 14 µM; with HCT-116 colon it was 2.42 µM; in the test with LOX IMVI melanoma, 0.757 µM; with MALME-3M melanoma it was 12.2 µM; in the test with NCI-H522 lung, 15.7 µM. The TGI with OVCAR-3 ovarian is 4.35 µM; with OVCAR-4 ovarian, 12.4 µM; with SF-295 CNS, 1.93 µM; in the test on U251 CNS, 2.92 µM.
For the compound `C/C(CCC(=O)O)=N/Nc1ccc([N+](=O)[O-])cc1`, the GI50 with 786-0 renal was 4340 nM; with COLO 205 colon, 3.43 µM; in the test on HCT-116 colon, 4310 nM; in the test on LOX IMVI melanoma, 1840 nM; in the test on MALME-3M melanoma it was 65000 nM; in the test on NCI-H522 lung, 738 nM. The GI50 was 17400 nM with OVCAR-3 ovarian, more than 100 µM in the test on OVCAR-4 ovarian, 2360 nM with SF-295 CNS and more than 100000 nM in the test with U251 CNS. The concentration for total growth inhibition (TGI) in the test with 786-0 renal, with COLO 205 colon, with HCT-116 colon, in the test with LOX IMVI melanoma, in the test on MALME-3M melanoma and with NCI-H522 lung was more than 100 µM each time. The concentration for total growth inhibition (TGI) in the test on OVCAR-3 ovarian, with OVCAR-4 ovarian, in the test on SF-295 CNS and in the test on U251 CNS was more than 100 µM each time.
With `CC1CCC2C(C)C(=O)OC3OC4(C)CCC1C32OO4` (stereo not drawn), the GI50 in the test with 786-0 renal was more than 100000 nM; in the test on COLO 205 colon, more than 100 µM; in the test with U251 CNS, more than 100000 nM. For the same compound, the TGI is more than 100 µM in the test on 786-0 renal; more than 100 µM in the test on COLO 205 colon; more than 100 µM with HCT-116 colon; more than 100 µM in the test on LOX IMVI melanoma; more than 100 µM with MALME-3M melanoma; more than 92.6 µM in the test with NCI-H522 lung. For the same compound, the TGI in the test on OVCAR-3 ovarian, in the test on OVCAR-4 ovarian, in the test with SF-295 CNS and in the test on U251 CNS was more than 100 µM each time.
As to `CCCCCCC1N=C(N)N=C(N)N1c1cccc(Cl)c1` (stereo not drawn), the GI50 in the test with 786-0 renal is 289 nM; with COLO 205 colon, 1.44 µM; in the test with HCT-116 colon it was 74.7 nM; in the test on LOX IMVI melanoma, 91.7 nM; in the test with MALME-3M melanoma, 765 nM; with NCI-H522 lung, 701 nM. The GI50 is 863 nM in the test on OVCAR-3 ovarian, 1.76 µM in the test on OVCAR-4 ovarian, 102 nM in the test on SF-295 CNS and 61.6 nM with U251 CNS. Further, the TGI in the test with 786-0 renal worked out at 13.3 µM; in the test on COLO 205 colon, 18.4 µM; in the test with HCT-116 colon it was 14.3 µM; in the test with LOX IMVI melanoma, 13.2 µM; in the test on MALME-3M melanoma, 15.6 µM; in the test on NCI-H522 lung it was 14.1 µM. The TGI in the test with OVCAR-3 ovarian turned out to be 10.5 µM; in the test with OVCAR-4 ovarian it was 38.2 µM; in the test on SF-295 CNS, 1.71 µM; in the test on U251 CNS, 13.7 µM.
